US11059860B2, “Biocidal peptide and preparation based thereon” (“VERTA RESEARCH-PRODUCTION COMPANY” LTD, priority 2017, dated 2021)
Where a SMILES comes first, the peptide text is derived from it. [ ]: non-standard residue; d: D form. Phe(2-Me) = Cc1ccccc1C[C@H](N)C(=O)O

Key:
red blood cells = type: cell-based
Experimental: The mixture was then diluted with a phosphate (PBS) buffer (0.015 M Na2HPO4, 0.15 M NaCl, pH 7.4). Samples of peptides in specific concentrations in PBS were placed in wells of a 96-well plate, and a red cell suspension in PBS was added to the samples. The red cell concentration was 1%. PBS was used as the negative control (no hemolysis). The positive control (100% hemolysis) −0.1% triton X-100 in PBS. The plates were incubated for three hours at 37° C. under 5% CO2 and centrifuged. The supernatant was transferred to a clean plate. The intensity of the hemoglobin release from the destroyed red blood cells was determined on a tablet spectrophotometer “Victor-2” (Finland) at λ-450 nm. […] All measurements were made thrice.

thymus cells = assay: Spontaneous proliferation of thymus cells (3H-thymidin capture); type: cell-based, murine; details: 72 hrs
spleen cells = assay: Spontaneous proliferation of spleen cells (3H-thymidin capture); type: cell-based, murine; details: for spontaneous proliferation of spleen cells (captured 3H-thymidin): 72 hrs
[1] = tested on: RAW 264.7 macrophage line cells; assay: NO production by RAW 264.7 macrophage line cells stimulated with LPS (Greiss test); type: cell-based
Experimental: Upon completion of incubation, the culture medium in all wells of the plate was replaced with 0.25 ml of fresh medium. […] Polymixin B (Calbiochem) (PMB) in the same concentrations was used as the positive control of the inhibition of the LPS effect. The prepared mixture was then added at 0.25 ml increments to the wells of the culture plate at least in two parallel experiments. A mixture of LPS and the culture medium was added to the control wells. The cells were cultivated for 24 hrs. in a CO2 incubator. NO production was measured based on the total nitrite level in the culture medium in the Greiss test by using a commercial reagent (Sigma) according to the manufacturer's specifications.

[2] = tested on: type 2 herpes simplex virus, strain G (ATCC VR-734, USA); assay: Protective activity in lethal herpes infection caused in mice by vaginal infection; type: in vivo
[3] = tested on: spleen cells stimulated with LPS; type: cell-based, murine
[4] = stimulated with 0.04 ml of LPS, peptide 0.4 μg/ml
[5] = stimulated with 0.04 ml of LPS, peptide 2 μg/ml
[6] = stimulated with 0.04 ml of LPS, peptide 10 μg/ml
[7] = stimulated with 0.2 ml of LPS, peptide 0.4 μg/ml
[8] = stimulated with 0.2 ml of LPS, peptide 2 μg/ml
[9] = stimulated with 0.2 ml of LPS, peptide 10 μg/ml
[10] = mice, n = 15, applied once a day on days 1-5 post infection, followed 18 days

Compound	dose at which hemolysis was not induced (red blood cells)	spontaneous proliferation of thymus cells (captured 3H-thymidin) (thymus cells; peptide 0.08 μg/ml)	spontaneous proliferation of thymus cells (captured 3H-thymidin) (thymus cells; peptide 0.4 μg/ml)	spontaneous proliferation of thymus cells (captured 3H-thymidin) (thymus cells; peptide 2 μg/ml)	spontaneous proliferation of thymus cells (captured 3H-thymidin) (thymus cells; peptide 10 μg/ml)	spontaneous proliferation of spleen cells (captured 3H-thymidin) (spleen cells; peptide 0.08 μg/ml)	spontaneous proliferation of spleen cells (captured 3H-thymidin) (spleen cells; peptide 0.4 μg/ml)	spontaneous proliferation of spleen cells (captured 3H-thymidin) (spleen cells; peptide 2 μg/ml)	spontaneous proliferation of spleen cells (captured 3H-thymidin) (spleen cells; peptide 10 μg/ml)	NO production inhibition [1, 4]	NO production inhibition [1, 5]	NO production inhibition [1, 6]	NO production inhibition [1, 7]	NO production inhibition [1, 8]	NO production inhibition [1, 9]	further results
CC[C@H](C)[C@H](N)C(=O)N[C@@H](CC(C)C)C(=O)N1CCC[C@H]1C(=O)N[C@@H](Cc1ccccc1C)C(=O)N[C@@H](CCCCN)C(=O)N[C@@H](Cc1ccccc1C)C(=O)N1CCC[C@H]1C(=O)N[C@@H](Cc1ccccc1C)C(=O)N[C@@H](Cc1ccccc1C)C(=O)N1CCC[C@H]1C(=O)N[C@@H](Cc1ccccc1C)C(=O)N[C@@H](CCCNC(=N)N)C(=O)N[C@@H](CCCNC(=N)N)C(N)=O [Peptide 11, H-Ile-Leu-Pro-(2-Me)Phe-Lys-(2-Me)Phe-Pro-(2-Me)Phe-(2-Me)Phe-Pro-(2-Me) Phe-Arg-Arg-NH2] (H-ILP[Phe(2-Me)]K[Phe(2-Me)]P[Phe(2-Me)][Phe(2-Me)]P[Phe(2-Me)]RR-NH2)	exceeding 200 μg/ml	–	–	–	–	–	–	–	–	–	–	–	–	–	–	–
Polymixin B [PMB]	–	255 ± 68 imp/min	197 ± 10 imp/min	197 ± 12 imp/min	201 ± 66 imp/min	1488 ± 497 imp/min	1548 ± 140 imp/min	2051 ± 167 imp/min	2051 ± 456 imp/min	44%	85%	94%	11%	62%	98%	–
Nc1nc2c(ncn2COCCO)c(=O)[nH]1 [Acyclovir]	–	–	–	–	–	–	–	–	–	–	–	–	–	–	–	Number of Dead animals [2, 10]: 4; Number of Survived animals [2, 10]: 11; Mortality ([2]; mice, n = 15, followed 18 days): 26.7%; Increase in ALS ([2]; versus virus control group): 2.5
CC[C@H](C)[C@H](N)C(=O)N[C@@H](CC(C)C)C(=O)N1CCC[C@H]1C(=O)N[C@H](Cc1ccccc1)C(=O)N[C@@H](CCCCN)C(=O)N[C@H](Cc1ccccc1)C(=O)N1CCC[C@H]1C(=O)N[C@H](Cc1ccccc1)C(=O)N[C@H](Cc1ccccc1)C(=O)N1CCC[C@H]1C(=O)N[C@H](Cc1ccccc1)C(=O)N[C@@H](CCCNC(=N)N)C(=O)N[C@@H](CCCNC(=N)N)C(N)=O [Peptide 6, H-Ile-Leu-Pro-D-Phe-Lys-D-Phe-Pro-D-Phe-D-Phe-Pro-D-Phe-Arg-Arg-NH2] (H-ILP[dF]K[dF]P[dF][dF]P[dF]RR-NH2)	exceeding 200 μg/ml	306 ± 103 imp/min	246 ± 48 imp/min	298 ± 63 imp/min	736 ± 161 imp/min	1530 ± 510 imp/min	1615 ± 248 imp/min	1854 ± 236 imp/min	3279 ± 177 imp/min	0%	1%	8%	1%	10%	7%	effect on spontaneous proliferation of splenocytes (in words) (spleen cells; 2-10 μg/ml dose range): statistically significant enhancement of the spontaneous proliferation of splenocytes; effect on splenocyte proliferation stimulated with lipopolysaccharide (in words) [3]: inhibited the LPS effect; effect on NO production stimulated by LPS (in words) ([1]; 10-0.4 μg/ml doses): inhibited the NO production
